Measurements published in the supplement of paper PMC10307832.

Tests used:
Test in all cases: relative viability (nuclei count vs DMSO), 5 days (fraction); higher = more cells survive
[1] = compound: CCC1=CN=CN=C1N2CCN(CC2)CC3=NC4=C(N3)C=C(C=C4)C(F)(F)F + COc1cc2c(Oc3ccc(NC(=O)C4(C(=O)Nc5ccc(F)cc5)CC4)cc3F)ccnc2cc1OCCCN1CCOCC1 [Foretinib] (partner 0.25 µM)
Outline: (§1)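 Relative viability equals treated-well nuclei counts divided by vehicle-well nuclei counts. Counts came from 4× images of lung cancer cell lines grown in 1536-well plates for 5 days after pin-tool dosing on the day after seeding. Dosing used one drug alone or a fixed anchor-drug dose plus five library-drug doses (not always all listed) in √10 steps, and values are medians of duplicate plates.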

[2] = compound: CCn1c(-c2nonc2N)nc2cnc(Oc3cccc(NC(=O)c4ccc(OCCN5CCOCC5)cc4)c3)cc21 + Nc1nc2[nH]cc(CCc3ccc(C(=O)N[C@@H](CCC(=O)O)C(=O)O)cc3)c2c(=O)[nH]1 [Pemetrexed] (partner 0.2 µM)
Outline: as §1

Mirin + Tozasertib = compound: N=C1NC(=O)/C(=C/c2ccc(O)cc2)S1 [Mirin] + Cc1cc(Nc2cc(N3CCN(C)CC3)nc(Sc3ccc(NC(=O)C4CC4)cc3)n2)n[nH]1 [Tozasertib] (partner 0.1 µM)
Outline: as §1

Mirin + Decitabine = compound: N=C1NC(=O)/C(=C/c2ccc(O)cc2)S1 [Mirin] + Nc1ncn([C@H]2C[C@H](O)[C@@H](CO)O2)c(=O)n1 [Decitabine] (partner 2 µM)
Outline: as §1

Cell Line	relative viability ([1]; first compound 0.04 µM)	relative viability ([1]; first compound 0.1265 µM)	relative viability ([1]; first compound 0.4 µM)	relative viability ([1]; first compound 1.265 µM)	relative viability ([1]; first compound 4 µM)	relative viability ([2]; first compound 0.04 µM)	relative viability ([2]; first compound 0.1265 µM)	relative viability ([2]; first compound 0.4 µM)	relative viability ([2]; first compound 1.265 µM)	relative viability ([2]; first compound 4 µM)	relative viability (Mirin + Tozasertib; first compound 0.25 µM)	relative viability (Mirin + Tozasertib; first compound 2.5 µM)	relative viability (Mirin + Tozasertib; first compound 7.906 µM)	relative viability (Mirin + Tozasertib; first compound 25 µM)	relative viability (Mirin + Decitabine; first compound 0.25 µM)	relative viability (Mirin + Decitabine; first compound 0.7906 µM)	relative viability (Mirin + Decitabine; first compound 2.5 µM)	relative viability (Mirin + Decitabine; first compound 7.906 µM)	relative viability (Mirin + Decitabine; first compound 25 µM)	relative viability (Mirin + Tozasertib; first compound 0.7906 µM)
LK-2	1.29	1.41	1.09	1.12	0.743	0.308	0.354	0.151	0.139	0.265	0.188	0.149	0.166	0.16	0.161	0.206	0.299	0.21	0.227	
NCI-H3122	0.924	0.968	0.94	0.978	0.977	0.217	0.214	0.183	0.17	0.202	0.368	0.355	0.382	0.305	0.41	0.431	0.432	0.372	0.353	0.337
NCI-H2126	1.15	1.26	1.06	0.986	1.17	0.8	0.715	0.51	0.765	0.642	0.85	0.92	0.832	0.474	0.556	0.534	0.586	0.557	0.461	0.834
NCI-H520	0.795	0.626	0.777	0.588	0.798	1.01	0.662	0.634	0.372	0.336	0.407	0.469	0.47	0.352	0.531	0.563	0.494	0.374	0.479	0.5
LOU-NH91	0.863	0.984	0.909	0.966	0.92	0.371	0.355	0.355	0.288	0.356	0.661	0.673	0.465	0.42	0.799	0.843	0.874	0.9	1.03	0.614
NCI-H1651	0.934	0.704	0.861	0.709	0.667	0.714	0.693	0.578	0.312	0.471	0.667	0.622	0.489	0.587	0.259	0.577	0.657	0.536	0.612	0.788
NCI-H460	1.05	1.03	0.999	1.06	0.964	0.0568	0.0572	0.0592	0.0521	0.0564	0.386	0.402	0.229	0.221	0.517	0.504	0.467	0.505	0.539	0.393
